US20260013501A1, “HERBICIDAL DERIVATIVES” (SYNGENTA CROP PROTECTION AG, priority 2022, published 2026)

Experiments:
Type in all cases: in vivo
[1] = tested on: Ipomoea hederacea (IPOHE); assay: Pre-emergence Test (Table B1), IPOHE; settings: evaluated after 13 days
[2] = tested on: Echinochloa crus-galli (ECHCG); assay: Pre-emergence Test (Table B1), ECHCG; settings: evaluated after 13 days
[3] = tested on: Amaranthus retoflexus (AMARE); assay: Pre-emergence Test (Table B1), AMARE; settings: evaluated after 13 days
[4] = tested on: Setaria faberi (SETFA); assay: Pre-emergence Test (Table B1), SETFA; settings: evaluated after 13 days
[5] = tested on: Zea mays (ZEAMX); assay: Post-emergence Test (Table B2), ZEAMX; design: key: 5-point damage scale: 5=81-100%, 4=61-80%, 3=41-60%, 2=21-40%, 1=0-20%; settings: evaluated after 13 days
Method in brief: (§1)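 Evaluation 13 days post-spray gives percent plant damage, reported in five 20% bands (1=0-20% up to 5=81-100%). Test species, sown in soil and kept at 24/16 °C day/night with 14 h light, are treated with compound in 50:50 acetone/water plus 0.5% Tween 20, applied per g/ha.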

[6] = tested on: Echinochloa crus-galli (ECHCG); assay: Post-emergence Test (Table B2), ECHCG; design: key: 5-point damage scale: 5=81-100%, 4=61-80%, 3=41-60%, 2=21-40%, 1=0-20%; settings: evaluated after 13 days
Method in brief: as §1

[7] = tested on: Setaria faberi (SETFA); assay: Post-emergence Test (Table B2), SETFA; design: key: five-point scale: 5=81-100%, 4=61-80%, 3=41-60%, 2=21-40%, 1=0-20% damage; settings: rate 250 g/Ha, evaluated after 13 days
Procedure: (§2) Seeds of a variety of test species are sown in standard soil in pots (Ipomoea hederacea (IPOHE), Zea mays (ZEAMX), Echinochloa crus-galli (ECHCG), Amaranthus palmeri (AMAPA), (Amaranthus retoflexus (AMARE), and (Setaria faberi (SETFA)). After 8 days cultivation under controlled conditions in a glasshouse (at 24° C./16° C., day/night; 14 hours light; 65% humidity), the plants are sprayed with an aqueous spray solution derived from the formulation of the technical active ingredient in acetone/water (50:50) solution containing 0.5% Tween 20 (polyoxyethelyene sorbitan monolaurate, CAS RN 9005-64-5). Rate of application is shown in g/ha in the tables below. The test plants are then grown in a glasshouse under controlled conditions in a glasshouse (at 24° C./16° C., day/night; 14 hours light; 65% humidity) and watered twice daily. After 13 days the test is evaluated for the percentage damage caused to the plant. The biological activities are shown in the following table on a five-point scale (5=81-100%; 4=61-80%; 3=41-60%; 2=21-40%; 1=0-20%; -=not tested).

[8] = tested on: Zea mays (ZEAMX); assay: Pre-emergence Test (Table B1), ZEAMX; settings: Rate 1000 g/Ha, evaluated after 13 days
[9] = tested on: Amaranthus palmeri (AMAPA); assay: Pre-emergence Test (Table B1), AMAPA; settings: Rate 1000 g/Ha, evaluated after 13 days
[10] = tested on: Ipomoea hederacea (IPOHE); assay: Post-emergence Test (Table B2), IPOHE; design: key: five-point scale: 5=81-100%, 4=61-80%, 3=41-60%, 2=21-40%, 1=0-20% damage; settings: rate 1000 g/Ha, evaluated after 13 days
Procedure: as §2

[11] = tested on: Amaranthus retoflexus (AMARE); assay: Post-emergence Test (Table B2), AMARE; design: key: five-point scale: 5=81-100%, 4=61-80%, 3=41-60%, 2=21-40%, 1=0-20% damage; settings: rate 1000 g/Ha, evaluated after 13 days
Procedure: as §2

CCn1c(Cc2ccccc2C(F)(F)F)cc(=O)c(C(=O)O)c1-c1ccc(Cl)c(Cl)c1 [Compound 11, 2-(3,4-dichlorophenyl)-1-ethyl-4-oxo-6-[[2-(trifluoromethyl)phenyl]methyl]pyridine-3-carboxylic acid]
0: Pre-emergence Test, percentage damage caused to the plant (five-point scale), IPOHE ([1]; Rate 250 g/Ha) | Pre-emergence Test, percentage damage caused to the plant (five-point scale), ECHCG ([2]; Rate 250 g/Ha) | Pre-emergence Test, percentage damage caused to the plant (five-point scale), AMARE ([3]; Rate 250 g/Ha) | Pre-emergence Test, percentage damage caused to the plant (five-point scale), SETFA ([4]; Rate 250 g/Ha) | percentage damage caused to the plant, ZEAMX ([5]; rate 250 g/Ha) | percentage damage caused to the plant, ECHCG ([6]; rate 250 g/Ha) | percentage damage caused to the plant, SETFA [7]

CCn1c(Cc2ccc(O)nn2)cc(=O)c(C(=O)O)c1-c1ccc(Cl)c(Cl)c1 [Compound 107, 2-(3,4-dichlorophenyl)-1-ethyl-6-[(6-hydroxypyridazin-3-yl)methyl]-4-oxo-pyridine-3-carboxylic acid]
0: Pre-emergence Test, percentage damage caused to the plant (five-point scale), IPOHE ([1]; Rate 1000 g/Ha) | Pre-emergence Test, percentage damage caused to the plant (five-point scale), ZEAMX [8] | Pre-emergence Test, percentage damage caused to the plant (five-point scale), ECHCG ([2]; Rate 1000 g/Ha) | Pre-emergence Test, percentage damage caused to the plant (five-point scale), AMAPA [9] | Pre-emergence Test, percentage damage caused to the plant (five-point scale), AMARE ([3]; Rate 1000 g/Ha) | Pre-emergence Test, percentage damage caused to the plant (five-point scale), SETFA ([4]; Rate 1000 g/Ha) | percentage damage caused to the plant, IPOHE [10] | percentage damage caused to the plant, ZEAMX ([5]; rate 1000 g/Ha) | percentage damage caused to the plant, ECHCG ([6]; rate 1000 g/Ha) | percentage damage caused to the plant, AMARE [11]
